Laboratory results as given in publication PMC3485383 (Biochemistry, 2012).

Tests used:
cytochrome P450 2B4 = molecular target: T1, cytochrome P450 2B4 (Oryctolagus cuniculus, UniProt P00178, H226Y); experiment: X-ray crystal structure; type: binding
T1 sequence (P00178 28-491 H226Y): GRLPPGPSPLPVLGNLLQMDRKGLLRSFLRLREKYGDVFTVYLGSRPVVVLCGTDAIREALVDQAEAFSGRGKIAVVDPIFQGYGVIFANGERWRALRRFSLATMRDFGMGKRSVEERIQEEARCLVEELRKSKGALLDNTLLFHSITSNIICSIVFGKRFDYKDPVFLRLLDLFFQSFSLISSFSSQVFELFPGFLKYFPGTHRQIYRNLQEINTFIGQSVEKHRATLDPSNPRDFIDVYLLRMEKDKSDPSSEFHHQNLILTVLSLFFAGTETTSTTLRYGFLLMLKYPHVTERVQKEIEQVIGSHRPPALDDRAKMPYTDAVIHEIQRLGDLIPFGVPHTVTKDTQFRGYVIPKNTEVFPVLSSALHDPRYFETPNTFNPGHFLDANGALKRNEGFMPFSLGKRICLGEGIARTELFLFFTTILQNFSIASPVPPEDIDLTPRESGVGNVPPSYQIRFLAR

cytochrome P450 2B6 = molecular target: T2, cytochrome P450 2B6 (Homo sapiens, UniProt P20813, K262R/Y226H); experiment: X-ray crystal structure; type: biochemical
T2 sequence (P20813 29-491 Y226H/K262R): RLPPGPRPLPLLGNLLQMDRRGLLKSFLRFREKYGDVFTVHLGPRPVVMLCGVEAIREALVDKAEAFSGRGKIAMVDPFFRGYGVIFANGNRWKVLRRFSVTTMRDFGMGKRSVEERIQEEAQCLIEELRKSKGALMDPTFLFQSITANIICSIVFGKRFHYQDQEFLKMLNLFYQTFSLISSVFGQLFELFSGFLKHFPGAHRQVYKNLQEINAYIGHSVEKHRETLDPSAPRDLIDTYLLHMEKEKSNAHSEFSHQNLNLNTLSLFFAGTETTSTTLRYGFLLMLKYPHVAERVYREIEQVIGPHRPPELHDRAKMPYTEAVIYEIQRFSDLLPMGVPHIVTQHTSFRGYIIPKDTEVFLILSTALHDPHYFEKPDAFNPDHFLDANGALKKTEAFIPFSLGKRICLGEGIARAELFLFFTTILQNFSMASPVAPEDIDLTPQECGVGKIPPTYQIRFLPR

Question: For `CCOC(=O)C1=C(COCCN)NC(C)=C(C(=O)OC)C1c1ccccc1Cl` (centres unmarked) [amlodipine], which Kd (cytochrome P450 2B4) is on record?
Answer: Its Kd is 2060 nM.

Question: What about the IC50 (cytochrome P450 2B6) of the same molecule?
Answer: The IC50 was 1600 nM.
